Holding throughout (assay type): cell-based
The target in test [1] is T1, BaF3/KIF5B-RET (B/KR) cells, RET WT (Homo sapiens, UniProt P07949+P33176).
T1 construct: FLAG; expressed in transfected cells; host or cells: BaF3
T1 sequence (P33176+P07949 with tags, fused parts or gaps): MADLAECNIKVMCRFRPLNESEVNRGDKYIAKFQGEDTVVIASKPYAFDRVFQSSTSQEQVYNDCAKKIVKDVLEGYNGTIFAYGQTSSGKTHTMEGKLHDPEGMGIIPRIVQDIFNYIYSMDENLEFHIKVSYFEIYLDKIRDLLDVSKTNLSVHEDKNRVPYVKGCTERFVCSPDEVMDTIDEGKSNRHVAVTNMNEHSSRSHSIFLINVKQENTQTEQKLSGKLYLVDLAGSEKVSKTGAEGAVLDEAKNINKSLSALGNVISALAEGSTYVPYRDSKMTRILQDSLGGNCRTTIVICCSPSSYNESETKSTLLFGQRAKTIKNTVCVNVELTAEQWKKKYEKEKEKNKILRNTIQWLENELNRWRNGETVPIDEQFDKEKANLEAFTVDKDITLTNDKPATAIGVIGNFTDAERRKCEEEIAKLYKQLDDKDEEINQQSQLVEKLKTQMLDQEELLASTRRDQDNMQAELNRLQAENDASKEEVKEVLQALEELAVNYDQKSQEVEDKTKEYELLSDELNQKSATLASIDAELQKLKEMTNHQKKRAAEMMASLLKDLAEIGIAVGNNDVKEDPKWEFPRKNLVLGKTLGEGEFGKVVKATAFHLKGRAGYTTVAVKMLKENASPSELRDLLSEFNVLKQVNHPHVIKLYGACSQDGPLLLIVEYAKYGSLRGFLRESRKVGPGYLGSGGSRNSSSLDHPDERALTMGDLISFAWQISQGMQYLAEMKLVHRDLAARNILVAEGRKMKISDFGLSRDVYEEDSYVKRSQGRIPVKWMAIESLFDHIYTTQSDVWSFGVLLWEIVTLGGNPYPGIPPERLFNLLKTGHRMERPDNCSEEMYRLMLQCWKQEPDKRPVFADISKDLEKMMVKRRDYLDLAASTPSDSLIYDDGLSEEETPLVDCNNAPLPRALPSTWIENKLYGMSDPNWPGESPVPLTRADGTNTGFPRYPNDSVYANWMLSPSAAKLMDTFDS
Briefly: Cell viability assay (CellTiter-Glo, 3 days) in B/KR cells. As to the method: (§1) BaF3 cell lines expressing a flag-tagged KIF5B-RET (B/KR) and the KIF5B-RET containing G810C, G810R, G810S, V804M, V804L mutations were as reported.[8,13,17,21–23] […] Infected cells were cultured for two weeks, and cells with high GFP intensity were sorted into a 96-well plate (1 cell/well). After the expansion of growing cell lines, they were screened for a high level of luciferase activity by luminescence imaging after exposure to D-luciferin. IMR-90 cells were from ATCC.
(§2) The TEL-VEGFR2 cDNA was then subcloned into pLentP lentiviral vector.[21] and BaF3/TEL-VEGFR2 (B/TV) cells were generated by infecting BaF3 cells with the lentiviral TEL-VEGFR2 as described. Cell viability assay was performed using CellTiter-Glo reagent (G7573, Promega, Madison, WI, USA) after 3 days of drug treatment as described for BaF3-derived cells and 5 days for IMR-90 cells.
Background: ATP-based viability assays read luminescence as a measure of living cells.

In test [2] the test system is KIF5B-RET autophosphorylation in B/KR and mutant cells. Put plainly: Immunoblotting analysis of cell lysates. To be noted: Fig. S1A. An excerpt: Figure S1. Immunoblotting analyses of cell lysates.
(A) Immunoblotting analysis of compounds on inhibition of KR or its mutant kinase activity and
induction of apoptosis in B/KR and mutant cells. (B) Immunoblotting analysis of HSN748-treated
(1 picture or pasted object on this page, not shown here)
On the technique in general: Immunoblotting shows a protein as a band on a membrane.

In test [3] the target is T2, B/KR(G810R) cells, KIF5B-RET G810R (Homo sapiens, UniProt P07949+P33176, G810R).
T2 construct: FLAG; expressed in transfected cells; host or cells: BaF3
T2 sequence (P07949 713-1063 G810R limits assumed): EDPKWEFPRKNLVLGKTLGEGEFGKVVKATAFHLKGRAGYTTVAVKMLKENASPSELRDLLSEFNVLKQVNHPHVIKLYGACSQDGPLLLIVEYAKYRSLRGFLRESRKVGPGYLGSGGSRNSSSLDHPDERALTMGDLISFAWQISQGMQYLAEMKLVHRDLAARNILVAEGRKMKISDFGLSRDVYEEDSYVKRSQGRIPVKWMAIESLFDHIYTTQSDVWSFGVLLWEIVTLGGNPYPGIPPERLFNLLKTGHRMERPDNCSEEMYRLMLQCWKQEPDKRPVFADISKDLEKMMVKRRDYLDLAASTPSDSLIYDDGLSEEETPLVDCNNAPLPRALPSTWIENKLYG
Put plainly: Cell viability assay (CellTiter-Glo, 3 days) in B/KR(G810R) cells. As for the experimental part: as §1, §2

For `Cc1n[nH]c2ncc(C#Cc3cncc(C(=O)Nc4ccc(CN5CCN(C)CC5)c(C(F)(F)F)c4)c3)cc12` [HSND19, 5-((3-Methyl-1H-pyrazolo[3,4-b]pyridin-5-yl)ethynyl)-N-(4-((4-methylpiperazin-1-yl)methyl)-3-(trifluoromethyl)phenyl)nicotinamide], the IC50 in test [1] was determined as 1.95 ± 0.12 nM; in test [3] it was 23.1 ± 1.39 nM. Besides, in test [2], the “KIF5B-RET autophosphorylation and apoptosis (immunoblotting)” value is “inhibit KIF5B-RET autophosphorylation and induce apoptosis at low nanomolar concentrations”.

Take `CN1CCN(Cc2ccc(NC(=O)c3cncc(C#Cc4cnc5cccnn45)c3)cc2C(F)(F)F)CC1` [HSN748]: the IC50 in test [1] is 4.05 ± 0.18 nM; in test [3] it was 20.6 ± 1.42 nM. Also, the “KIF5B-RET autophosphorylation and apoptosis (immunoblotting)” value in test [2] was “inhibit KIF5B-RET autophosphorylation and induce apoptosis at low nanomolar concentrations”.

For `CCOc1ccc2ncc(C#Cc3cncc(C(=O)Nc4ccc(CN5CCN(C)CC5)c(C(F)(F)F)c4)c3)n2n1` [HSND14, 5-((6-Ethoxyimidazo[1,2-b]pyridazin-3-yl)ethynyl)-N-(4-((4-methylpiperazin-1-yl)methyl)-3-(trifluoromethyl)phenyl)nicotinamide], the IC50 in test [1] was determined as 4.02 ± 0.19 nM; in test [3] it was 33 ± 0.67 nM. Moreover, in test [2], the “KIF5B-RET autophosphorylation and apoptosis (immunoblotting)” value is “inhibit KIF5B-RET autophosphorylation and induce apoptosis at low nanomolar concentrations”.

By IC50 is commonly meant the concentration at which inhibition is half-maximal. Low values mean greater potency in that assay, high ones weaker potency in that assay.
